What was measured:
[1] = system: Epidermal growth factor receptor (Homo sapiens), P00533 [G719C]; test: Inhibition of EGFR G719C mutant (unknown origin) assessed as residual activity at 1000 nM by KINOMEscan analysis relative to control
[2] = molecular target: Insulin receptor-related protein (Homo sapiens) (UniProt P14616); test: Inhibition of INSRR (unknown origin) assessed as residual activity at 1000 nM by KINOMEscan analysis relative to control
[3] = molecular target: T1, Interleukin-1 receptor-associated kinase 4 (Homo sapiens) (UniProt Q9NWZ3); test: Inhibition of IRAK4 (unknown origin) assessed as residual activity at 1000 nM by KINOMEscan analysis relative to control
T1 sequence (whole entry): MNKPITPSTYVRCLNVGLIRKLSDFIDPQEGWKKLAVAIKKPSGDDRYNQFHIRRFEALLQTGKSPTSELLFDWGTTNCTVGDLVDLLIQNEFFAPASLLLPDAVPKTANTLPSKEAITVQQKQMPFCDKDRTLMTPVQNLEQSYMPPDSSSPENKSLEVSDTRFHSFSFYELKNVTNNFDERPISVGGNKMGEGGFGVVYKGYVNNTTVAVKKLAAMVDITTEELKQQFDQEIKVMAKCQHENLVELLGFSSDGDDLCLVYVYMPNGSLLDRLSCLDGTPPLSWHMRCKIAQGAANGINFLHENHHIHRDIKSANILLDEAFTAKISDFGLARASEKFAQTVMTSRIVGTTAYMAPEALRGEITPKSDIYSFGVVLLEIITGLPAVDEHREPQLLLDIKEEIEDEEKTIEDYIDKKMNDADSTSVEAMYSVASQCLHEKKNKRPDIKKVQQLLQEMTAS

[4] = molecular target: T2, Serine/threonine-protein kinase Nek10 (Homo sapiens) (UniProt Q6ZWH5); test: Inhibition of NEK10 (unknown origin) assessed as residual activity at 1000 nM by KINOMEscan analysis relative to control
T2 sequence (whole entry): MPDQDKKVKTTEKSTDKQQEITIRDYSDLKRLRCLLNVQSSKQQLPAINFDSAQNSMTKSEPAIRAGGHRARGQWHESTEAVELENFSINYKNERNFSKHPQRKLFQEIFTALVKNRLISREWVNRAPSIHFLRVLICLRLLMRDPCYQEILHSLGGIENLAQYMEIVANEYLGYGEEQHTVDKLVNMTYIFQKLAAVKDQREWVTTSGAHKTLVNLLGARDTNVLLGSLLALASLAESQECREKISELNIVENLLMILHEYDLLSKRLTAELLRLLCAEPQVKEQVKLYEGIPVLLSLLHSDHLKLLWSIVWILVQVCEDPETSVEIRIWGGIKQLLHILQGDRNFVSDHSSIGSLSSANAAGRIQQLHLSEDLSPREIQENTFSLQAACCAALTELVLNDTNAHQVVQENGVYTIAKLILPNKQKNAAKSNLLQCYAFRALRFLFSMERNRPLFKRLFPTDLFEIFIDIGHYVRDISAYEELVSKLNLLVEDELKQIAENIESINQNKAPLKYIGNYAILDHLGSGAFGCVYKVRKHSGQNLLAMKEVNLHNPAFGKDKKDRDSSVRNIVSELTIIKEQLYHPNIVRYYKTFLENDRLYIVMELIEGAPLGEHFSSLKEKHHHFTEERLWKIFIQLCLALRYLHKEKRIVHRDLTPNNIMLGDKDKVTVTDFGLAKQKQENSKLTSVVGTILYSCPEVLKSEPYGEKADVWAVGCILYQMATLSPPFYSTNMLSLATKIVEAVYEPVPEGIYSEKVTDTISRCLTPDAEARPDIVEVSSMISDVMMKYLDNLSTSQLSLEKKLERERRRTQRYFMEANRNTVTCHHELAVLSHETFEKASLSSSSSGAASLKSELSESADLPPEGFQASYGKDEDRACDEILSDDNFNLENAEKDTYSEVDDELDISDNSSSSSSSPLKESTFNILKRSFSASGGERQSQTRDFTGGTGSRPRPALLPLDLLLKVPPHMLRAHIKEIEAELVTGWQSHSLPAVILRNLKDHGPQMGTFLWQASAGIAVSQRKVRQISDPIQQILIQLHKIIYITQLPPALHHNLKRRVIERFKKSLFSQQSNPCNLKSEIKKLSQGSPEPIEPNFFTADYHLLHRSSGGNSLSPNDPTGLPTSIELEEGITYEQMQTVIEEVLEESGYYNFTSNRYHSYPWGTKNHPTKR

[5] = molecular target: Cyclin-dependent kinase 16 (Homo sapiens) (UniProt Q00536); test: Inhibition of PCTK1 (unknown origin) assessed as residual activity at 1000 nM by KINOMEscan analysis relative to control
Cyclin-dependent kinase 16 (Homo sapiens), sequence (Q00536 whole entry): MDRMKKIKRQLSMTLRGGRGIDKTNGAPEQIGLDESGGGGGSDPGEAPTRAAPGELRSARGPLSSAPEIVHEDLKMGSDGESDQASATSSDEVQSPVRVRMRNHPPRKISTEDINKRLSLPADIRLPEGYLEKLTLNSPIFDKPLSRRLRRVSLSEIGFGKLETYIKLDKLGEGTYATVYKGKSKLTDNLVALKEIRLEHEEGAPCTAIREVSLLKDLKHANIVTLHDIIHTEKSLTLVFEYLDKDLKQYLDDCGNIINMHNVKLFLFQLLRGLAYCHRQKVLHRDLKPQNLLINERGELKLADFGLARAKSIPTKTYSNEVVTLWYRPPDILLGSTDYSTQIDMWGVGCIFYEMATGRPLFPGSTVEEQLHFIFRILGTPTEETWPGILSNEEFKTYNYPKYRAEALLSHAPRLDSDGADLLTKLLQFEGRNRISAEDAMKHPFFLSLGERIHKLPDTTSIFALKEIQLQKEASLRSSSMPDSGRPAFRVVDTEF

[6] = molecular target: T3, Protein kinase C epsilon type (Homo sapiens) (UniProt Q02156); test: Inhibition of PRKCE (unknown origin) assessed as residual activity at 1000 nM by KINOMEscan analysis relative to control
T3 sequence (whole entry): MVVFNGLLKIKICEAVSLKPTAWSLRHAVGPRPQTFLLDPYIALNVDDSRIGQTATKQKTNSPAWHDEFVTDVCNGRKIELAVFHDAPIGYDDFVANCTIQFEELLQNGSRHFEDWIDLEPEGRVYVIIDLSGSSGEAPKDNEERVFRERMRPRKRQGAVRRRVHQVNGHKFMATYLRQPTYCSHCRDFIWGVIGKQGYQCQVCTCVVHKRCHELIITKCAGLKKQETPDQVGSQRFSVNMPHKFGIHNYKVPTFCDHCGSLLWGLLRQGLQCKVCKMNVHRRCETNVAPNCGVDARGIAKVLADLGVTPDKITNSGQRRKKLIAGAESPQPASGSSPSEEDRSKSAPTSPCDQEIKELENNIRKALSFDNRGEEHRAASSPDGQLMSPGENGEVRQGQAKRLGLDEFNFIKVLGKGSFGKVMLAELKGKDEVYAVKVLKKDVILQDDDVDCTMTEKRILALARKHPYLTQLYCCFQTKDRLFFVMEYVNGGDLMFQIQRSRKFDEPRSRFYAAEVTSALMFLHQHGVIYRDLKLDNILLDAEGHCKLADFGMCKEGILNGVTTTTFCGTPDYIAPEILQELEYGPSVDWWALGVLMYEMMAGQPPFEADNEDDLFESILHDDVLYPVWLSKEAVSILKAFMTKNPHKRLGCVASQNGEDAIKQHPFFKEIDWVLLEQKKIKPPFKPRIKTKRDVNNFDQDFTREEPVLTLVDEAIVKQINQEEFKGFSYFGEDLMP

[7] = molecular target: Serine/threonine-protein kinase RIO2 (Homo sapiens) (UniProt Q9BVS4); test: Inhibition of RIOK2 (unknown origin) assessed as residual activity at 1000 nM by KINOMEscan analysis relative to control
Serine/threonine-protein kinase RIO2 (Homo sapiens), sequence (Q9BVS4 whole entry, looked up): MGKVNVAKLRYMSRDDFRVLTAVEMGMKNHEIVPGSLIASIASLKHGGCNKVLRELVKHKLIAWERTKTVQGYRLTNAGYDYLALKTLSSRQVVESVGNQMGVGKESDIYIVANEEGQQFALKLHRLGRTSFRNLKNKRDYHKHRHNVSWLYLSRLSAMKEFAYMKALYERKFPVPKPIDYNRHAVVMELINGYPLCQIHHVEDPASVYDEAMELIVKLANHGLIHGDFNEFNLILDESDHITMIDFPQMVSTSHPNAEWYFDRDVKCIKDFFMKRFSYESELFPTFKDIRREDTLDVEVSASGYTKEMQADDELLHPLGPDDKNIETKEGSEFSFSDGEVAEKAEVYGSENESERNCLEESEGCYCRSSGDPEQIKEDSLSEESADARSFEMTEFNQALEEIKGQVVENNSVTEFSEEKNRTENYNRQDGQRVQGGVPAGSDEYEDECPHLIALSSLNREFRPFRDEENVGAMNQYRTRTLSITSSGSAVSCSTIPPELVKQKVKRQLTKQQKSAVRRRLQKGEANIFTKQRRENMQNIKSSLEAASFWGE

Insulin receptor-related protein (Homo sapiens), sequence (P14616 27-742 limits assumed): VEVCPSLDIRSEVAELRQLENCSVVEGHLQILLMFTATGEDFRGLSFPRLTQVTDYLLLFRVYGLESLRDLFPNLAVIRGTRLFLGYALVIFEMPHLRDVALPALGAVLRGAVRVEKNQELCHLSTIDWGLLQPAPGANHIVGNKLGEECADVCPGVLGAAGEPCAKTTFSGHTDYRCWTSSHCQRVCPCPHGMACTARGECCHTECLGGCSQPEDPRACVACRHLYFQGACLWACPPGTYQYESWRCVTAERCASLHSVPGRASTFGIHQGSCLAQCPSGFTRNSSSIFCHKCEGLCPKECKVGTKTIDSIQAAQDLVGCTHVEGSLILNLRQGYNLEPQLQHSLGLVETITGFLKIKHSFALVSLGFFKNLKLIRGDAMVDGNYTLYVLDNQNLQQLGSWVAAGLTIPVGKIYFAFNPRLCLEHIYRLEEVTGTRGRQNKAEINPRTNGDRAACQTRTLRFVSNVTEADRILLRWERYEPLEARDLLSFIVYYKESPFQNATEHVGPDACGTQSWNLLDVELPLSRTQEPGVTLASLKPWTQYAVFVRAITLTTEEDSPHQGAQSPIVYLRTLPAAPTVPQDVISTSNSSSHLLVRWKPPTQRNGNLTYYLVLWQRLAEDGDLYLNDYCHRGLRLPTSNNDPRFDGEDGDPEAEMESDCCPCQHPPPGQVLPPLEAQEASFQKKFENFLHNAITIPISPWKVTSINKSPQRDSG
Insulin receptor-related protein (Homo sapiens), sequence (P14616 747-1297 limits assumed): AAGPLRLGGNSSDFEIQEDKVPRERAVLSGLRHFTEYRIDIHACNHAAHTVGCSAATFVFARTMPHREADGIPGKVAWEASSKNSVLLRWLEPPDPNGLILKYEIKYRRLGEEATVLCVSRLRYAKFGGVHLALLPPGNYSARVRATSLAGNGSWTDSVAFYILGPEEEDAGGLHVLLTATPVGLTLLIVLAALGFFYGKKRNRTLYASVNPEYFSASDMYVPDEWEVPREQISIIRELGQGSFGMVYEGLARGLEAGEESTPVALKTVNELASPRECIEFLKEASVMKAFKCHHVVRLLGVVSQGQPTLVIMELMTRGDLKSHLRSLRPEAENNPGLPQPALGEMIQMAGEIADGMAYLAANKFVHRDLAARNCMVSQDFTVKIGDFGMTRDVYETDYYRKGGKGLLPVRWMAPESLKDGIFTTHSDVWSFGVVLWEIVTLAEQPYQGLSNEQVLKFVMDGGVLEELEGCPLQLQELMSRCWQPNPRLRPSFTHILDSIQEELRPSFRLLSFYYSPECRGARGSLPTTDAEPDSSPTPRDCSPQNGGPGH

Structure (SMILES)	Activity [1] [%]	Activity [2] [%]	Activity [3] [%]	Activity [4] [%]	Activity [5] [%]	Activity [6] [%]	Activity [7] [%]
COc1cc2nc(C)nc(N[C@H](C)c3cccc(-c4cn[nH]c4)c3)c2cc1OC	77	97	59	90	95	80	61
COc1cc2ncnc(N[C@H](C)c3cccc4ccccc34)c2cc1OC	1.6	93	83	68	88	95	82
